Reference: ChEMBL document CHEMBL1137038, “7-Substituted 2-phenyl-benzofurans as ER beta selective ligands” (Bioorg Med Chem Lett, 2004)

Biological target: T1, Estrogen receptor (Homo sapiens, UniProt P03372)
T1 sequence (P03372 whole entry): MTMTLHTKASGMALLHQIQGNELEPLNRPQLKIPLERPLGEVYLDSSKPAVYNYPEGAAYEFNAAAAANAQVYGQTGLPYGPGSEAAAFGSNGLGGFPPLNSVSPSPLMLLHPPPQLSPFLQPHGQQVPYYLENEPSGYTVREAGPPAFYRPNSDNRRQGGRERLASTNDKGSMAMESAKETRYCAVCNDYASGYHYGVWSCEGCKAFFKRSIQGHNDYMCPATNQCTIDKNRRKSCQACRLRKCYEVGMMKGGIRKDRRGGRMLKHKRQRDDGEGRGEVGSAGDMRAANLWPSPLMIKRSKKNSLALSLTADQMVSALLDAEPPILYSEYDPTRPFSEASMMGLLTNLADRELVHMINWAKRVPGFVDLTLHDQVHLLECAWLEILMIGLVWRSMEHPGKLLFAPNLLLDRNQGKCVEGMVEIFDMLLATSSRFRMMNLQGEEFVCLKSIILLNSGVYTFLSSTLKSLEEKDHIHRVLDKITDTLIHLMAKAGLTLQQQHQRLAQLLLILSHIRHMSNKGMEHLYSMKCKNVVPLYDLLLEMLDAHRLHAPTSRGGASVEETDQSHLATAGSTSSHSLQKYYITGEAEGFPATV
Description: Binding affinity for human Estrogen receptor alpha

Row | Structure (SMILES) | IC50 [nM]
1 | COc1cc(O)cc2cc(-c3ccc(O)c(F)c3)oc12 | 990
2 | COc1cc(O)c(Br)c2cc(-c3ccc(O)c(F)c3)oc12 | 335
